Source: patent publication US9409146B2, “Method for treating amyloid disease” (New York University, priority 2002, dated 2016)

Tests used:
[1] = test system: Aβ plaques; test: Histology and image analysis of Aβ plaques in brain (6E10 staining); type: in vivo, mouse
Experimental: (§1) Briefly, mice received their first immunization with K6Aβ1-30-NH2(E18E19) at 10.5-13 months of age (peptide: n=23; vehicle: n=24). The animals were bled prior to vaccination, 3 months following the first injection and at the time of sacrifice at 18 to 21 months. The mice were tested in the radial arm maze, subsequently perfused and their brains processed as described (Sigurdsson et al., Am. J. Pathol. 2001; 159:439-4471) (peptide: n=18; vehicle: n=18).
Mice were anesthetized with sodium pentobarbital (150 mg/kg, intraperitoneally), perfused transaortically with phosphate buffer and the brains processed as previously described (Sigurdsson et al., Neurobiol. Aging 1996; 17:893-901) The right hemisphere was immersion fixed in periodate-lysine-paraformaldehyde (PLP), whereas the left hemisphere was snap-frozen for measurements of Aβ3 levels using established ELISA methods (Mehta et al., Arch. Neurol. 2000; 57:100-105). Serial coronal sections (40 μm) were cut and every fifth section was stained with 6E10 which recognizes Aβ and stains both pre-amyloid and Aβ plaques (Kim et al., Neurosci Res Comm 1990; 7:113-122). […]
Immunohistochemistry of tissue sections was quantified with a Bioquant image analysis system, and unbiased sampling was used (West et al., Trends Neurosci. 1999; 22:51-61). […] Cortical area analyzed was dorsomedially from the cingulate cortex and extended ventrolaterally to the rhinal fissure within the right hemisphere. The area of the grid was 800×800 μm^2 and amyloid load was measured in 20 frames per mouse (each: 640×480 μm^2), chosen randomly. […] The number of plaques were also counted and the plaques were divided into three groups based on their size (small: 0.01-50 μm^2; medium: 50.01-1000 μm^2; large: >1000 μm^2).
(§2) The data for the amyloid burden within the brain were analyzed by a Student's t-test, one-tailed (GraphPad Prism). The radial arm maze data was analyzed by two-way ANOVA repeated measures. […] Correlation was determined by calculating the Pearson r correlation coefficient.

[2] = test system: Tg2576 APP mouse model; test: Radial arm maze after immunization of Tg2576 mice; type: in vivo
Experimental: as §1
The vaccination was performed in the Tg2576 APP mouse model developed by Karen Hsiao and colleagues (Hsiao et al., Science 1996:274:99-1022). These mice develop Aβ plaques as early as at 11 to 13 months of age. The animals were maintained on a 12-hour light-dark cycle, and had access to food and water ad libitum. The animal care was in accordance with institutional guidelines.
K6Aβ1-30-NH2(E18E19) was supplied as trifluoroacetic acid salt. […]
Animals were kept in test room throughout the experiment, behind a cover to prevent view of the apparatus and room. […] Total number of errors and time to enter all eight arms were recorded. […]
as §2

[3] = test system: Tg2576 APP mouse model; test: Antibody levels in plasma by ELISA after immunization; type: in vivo; settings: for IgM response compared to IgG response: plasma at 1:500 dilution
Experimental: as §1
K6Aβ1-30-NH2(E18E19) was supplied as trifluoroacetic acid salt. The immunization procedure was performed as previously described by us (Sigurdsson et al., Am. J. Pathol. 2001; 159:439-4471) which is the same protocol as described by Schenk and colleagues (Schenk et al., Nature 1999; 400:173-1773) except that the peptide was not incubated overnight at 37° C. before injection. Briefly, the peptide was dissolved in phosphate-buffered saline (PBS) at a concentration of 2 mg/ml and then mixed 1:1 (v/v) with the adjuvant or PBS. Complete Freund's adjuvant was used for the first injection, incomplete Freund's adjuvant for the next three injections, and PBS from the fifth injection forward. The mice received a subcutaneous injection of 100 μl of the mixture (ie, 100 μg/100 μl) followed by a second injection 2 weeks later, and then monthly thereafter. Vaccination using the K6Aβ1-30-NH2(E18E19) peptide started when the mice were 10.5-13 months of age and the mice were sacrificed at 18-21 months of age.
Antibody levels were determined by 1:500 dilutions of plasma using an enzyme-linked immunosorbent assay (ELISA) as described previously (Jimenez-Huete et al., Alzheimers Reports 1998; 1:41-47) in which Aβ or its derivative is coated onto microtiter wells. The antibodies were detected by a goat anti-mouse IgG linked to a horseradish peroxidase (Amersham Pharmacia Biotech, Piscataway, N.J.) or a goat anti-mouse IgM peroxidase conjugate (Sigma, A8786), and tetramethyl benzidine (Pierce, Rockford, Ill.) was the substrate.

[4] = test system: immobilized Aβ40 and Aβ42 peptides; test: Solid-phase binding assay (ELISA) of apoE preparations to immobilized Aβ peptides; settings: delipidated or lipidated (HDL/r-HDL) apoE3 and apoE4, 0-150 nM, 3 h
immobilized Aβ40 and Aβ42 peptides, sequence (P05067 672-711 limits assumed): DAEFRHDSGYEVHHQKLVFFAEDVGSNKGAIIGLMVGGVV
Experimental: The binding of apoE to Aβ species was studied by ELISA using immobilized freshly prepared (non-aggregated) or 72-h-aggregated Aβ40 and Aβ42 and apoE3 or apoE4 isoforms with different degrees of lipidation. Polystyrene microtitre plates (Immulon2; Dynex Technology, Chantilly, Va., U.S.A.) were coated for 2 h. at 37° C. with either fresh or aggregated Aβ40 and Aβ42 (40(0 ng in 100 μl of 0.1 M NaHCO3, pH 9.6, per well). Under these conditions, 10 ng of fresh Aβ40, 9.6 ng of fresh Aβ42, 10.2 ng of aggregated Aβ40 and 10.9 ng of aggregated Aβ42 (representing 2.5, 2.4, 2.6 and 2.7% of the peptide offered, respectively) were coated to the microtitre wells, as determined by a modification of the Quantigold assay (Diversified Biotech, Boston, Mass., U.S.A.) for protein quantification. After blocking with Superblock (Pierce), increasing concentrations of apoE (0-150 nM in TBS; 100 μl per well) were added to the Aβ-coated wells and incubated for 3 h. at 37° C. Bound apoE was detected with monoclonal anti-apoE antibody (3D12, 1:1000) followed by alkaline-phosphatase-conjugated goat F(ab′)2 anti-mouse IgG (1:3000; BioSource International, Camarillo, Calif., U.S.A.). The reaction was developed for 30 min. with p-nitrophenyl phosphate in diethanolamine buffer (Bio-Rad, Hercules, Calif., U.S.A.), and quantified at 405 nm on a Microplate Reader (Cambridge Technology, Watertown, Mass., U.S.A.). […]

K6Aβ1-30(E18E19): first 30 amino acids of amyloid-β with glutamate substituted for valine and phenylalanine in positions 18 and 19
effect on large plaques ([1]; large: >1000 μm^2): not significantly (N.S.) affected
reduction of medium sized plaques ([1]; medium: 50.01-1000 μm^2, p=0.04): 29%
reduction of small plaques ([1]; small: 0.01-50 μm^2, p=0.02): 34%
errors in the radial arm maze compared to vehicle-treated controls ([2]; Tg2576 transgenic mice, two-way ANOVA repeated measures, p<0.05): significantly fewer errors
radial arm maze performance compared to day 1 ([2]; immunized mice, p<0.01-0.05): showed improvements on days 3, 5, and 7-9
cross-reactivity of generated IgM antibodies ([3]; IgM antibodies after immunization): cross-reacted with Aβ1-40
IgM response compared to IgG response [3]: substantially more pronounced IgM response compared to IgG response
IgM response compared to IgG response ([3]; listed as K6Aβ1-30-NH2(E18E19)): high IgM response and low IgG response

apoE: human apoE3 or apoE4 from Sf9, HEK-293 or RAW-264 cells, delipidated or in HDL/r-HDL particles
binding of apoE to Aβ [4]: high affinity
